Reference: patent publication US12551464B2, “N-(3-amino-3-oxopropyl)-2-[(1-methyl-4-nitro-1H-imidazol-5-yl)thio]benzamide and its use for treating HIV infection” (The United States of America, as represented by the …, priority 2019, dated 2026)
“And” between values parts separate entries of the source, which are not always exact repeats. Identical values can stand only once. Like-named read-outs stand apart in the source and are kept apart here.

Experiments:
[1] = Toxicity of metabolite, method not described
[2] = system: CXCR4 Tropic Clade B HIV-192HT599; assay: Anti-HIV activity in human PBMCs, reverse transcriptase in culture supernatants; type: cell-based; settings: PBMC, 7 days in culture
Description: (§1) PHA-P stimulated PBMCs from three donors were pooled together and resuspended in fresh tissue culture medium at 1×10^6 cells/mL and plated in the interior wells of a 96 well round bottom microplate at 50 μL/well. A 100 μL volume of 9 concentrations of the compound serially diluted were transferred to the round bottom 96 well plate containing the cells in triplicate. 50 μL of HIV-1 at a predetermined dilution was added. Each plate contained cell control wells and virus control wells in parallel with the experimental wells. After 7 days in culture, efficacy was evaluated by measuring the reverse transcriptase in the culture supernatants and the cells were stained with the tetrazolium dye XTT to evaluate cytotoxicity.

[3] = Pharmacokinetics in cynomolgus macaques; type: in vivo; settings: 300 mg/kg p.o. oral gavage
Description: The compound of formula (I) was administered to cynomolgus macaques at a dose of 300 mg/kg p.o. via oral gavage.

[4] = system: simian immunodeficiency virus (SIV); assay: Viral load by RT-PCR in SIV-infected rhesus macaques; type: in vivo
Description: (§2) Two SIV-infected rhesus macaques were treated with 300 mg/kg of the compound of formula (I) once daily via oral gavage. Viral load before treatment and after 6 months of treatment were measured by RT-PCR. Viral infectivity was determined by measuring the amount of p27 Gag (in pg/mL) in a viral infectivity assay wherein virus isolated from the animals was used to infect CEMx174 cells, followed by ELISA. Viral samples were diluted 1:1000 prior to assay. The CD4 count for each monkey was measured after 6 months.

[5] = CD4 count in SIV-infected rhesus macaques; type: in vivo
Description: as §2

[6] = system: simian immunodeficiency virus (SIV); assay: Viral infectivity assay: virus isolated from the animals used to infect CEMx174 cells, p27 Gag ELISA; type: in vivo, rhesus macaques
Description: as §2

[7] = Maximum tolerated dose and dose range finding study in rats; type: in vivo
Description: The maximum tolerated dose in rats of the compound of formula (I) was determined to be greater than 2 g/day.

[8] = system: PBMCs; assay: Cytotoxicity in human PBMCs, XTT staining; type: cell-based; settings: 7 days in culture, read-out: TC50 (the source's name)
Description: as §1

[9] = Cytotoxicity in human PBMCs, XTT staining; type: cell-based; settings: human, PHA-P stimulated PBMCs pooled from three donors; Incubation Time 0 hours; 7 days in culture; read-out: TC50
Description: as §1

Compound | toxicity [1] | EC50 ([2]; Incubation Time 0 hours) | EC50 ([2]; Incubation Time 2 hours) | EC50 ([2]; Incubation Time 8 hours) | EC50 ([2]; Incubation Time 24 hours) | metabolism in blood [3] | AUC ([3]; cynomolgus monkey, blood) | half-life ([3]; cynomolgus monkey, blood) | Treated Viral Load ([4]; 300 mg/kg once daily oral gavage, after 6 months of treatment, RT-PCR) | reduction in viral load ([4]; 300 mg/kg p.o. daily over 6 months, versus before treatment) | Treated CD4 Count ([5]; 300 mg/kg once daily oral gavage, after 6 months) | CD4 counts, assessment ([5]; after 6 months of 300 mg/kg p.o. daily) | Treated Viral Infectivity (p27 Gag) ([6]; 300 mg/kg once daily oral gavage, 6 months, viral samples diluted 1:1000, CEMx174 cells, ELISA) | viral infectivity of SIV from treated animals compared with before treatment ([6]; 300 mg/kg p.o. daily over 6 months) | adverse clinical outcomes in dose range finding study ([7]; 2 g/kg p.o., once per day for 14 days) | MTD at 14 days ([7]; rat, in vivo, oral, 2 g/kg) | CC50 ([8]; Incubation Time 2 hours) | CC50 ([8]; Incubation Time 8 hours) | CC50 ([8]; Incubation Time 24 hours) | CC50 at 7 days [9]
CSc1ccccc1C(=O)NCCC(N)=O [Compound 3] | non-toxic | – | – | – | – | – | – | – | – | – | – | – | – | – | – | – | – | – | – | –
Cn1cnc([N+](=O)[O-])c1Sc1ccccc1C(=O)NCCC(N)=O [compound of formula (I), N-(3-amino-3-oxopropyl)-2-[(1-methyl-4-nitro-1H-imidazol-5-yl)thio]benzamide] | – | 3.23 µM | 7.12 µM | 5.18 µM | 4.45 µM | converted to two major metabolites | 5780 ng·h/mL | 456 min | 2.86 × 10^4 and 1.73 × 10^3 | approximately one | 365 and 363 | deemed normal | <0.1 pg/mL | significantly decreased | did not show adverse clinical outcomes | > 2000 mg/kg/day | > 100 µM | > 100 µM | > 100 µM | > 100 µM
